The values below come from US20060211045A1, “Fluorescently tagged ligands” (priority 2003, published 2006).

Test [1] addresses T1, human A1-receptor (Homo sapiens, UniProt P30542).
T1 sequence (P30542 1-326): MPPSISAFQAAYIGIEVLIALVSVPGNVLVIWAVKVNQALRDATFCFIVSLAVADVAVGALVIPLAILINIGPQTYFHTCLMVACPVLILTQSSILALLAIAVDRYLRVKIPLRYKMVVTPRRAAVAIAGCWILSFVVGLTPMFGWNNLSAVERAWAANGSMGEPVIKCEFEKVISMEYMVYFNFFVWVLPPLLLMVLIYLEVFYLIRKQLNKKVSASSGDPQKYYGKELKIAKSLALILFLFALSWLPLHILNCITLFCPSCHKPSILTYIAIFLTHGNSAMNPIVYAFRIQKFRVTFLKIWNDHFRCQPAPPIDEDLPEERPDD
As to the kind of experiment: Live cell confocal imaging of ligand binding to CHO-A1 cells. The arrangement: expressed in transfected cells; host or cells: CHO (CHO-K1) cells: CHO-A1 and CHO-A1fos; cell membranes in A1, whole or live cells in the other assays. It counts as cell-based. As to the method: Images were acquired using a Zeiss LSM510 confocal microscope using CHO-A1 cells grown to 50% confluency on 8-well Labtek™ plates in Dulbecco's
Modification of Eagle's Medium:Ham's F12 containing 5% foetal calf serum and 2 mM glutamine. Cells were washed twice with HEPES-buffered saline prior to incubation at 22° C. with compounds as indicated.
Functional studies were performed in CHO-K1 cells expressing both the human A1-AR and a c-fos-pGL3 reporter vector (CHO-A1fos cells). […] Luciferase expression was quantified using a Luclite® kit according to manufacturer's instructions. Live cell confocal imaging was carried out on CHO-A1 cells or CHO cells expressing the A1-AR tagged on the C-terminus with a green fluorescent protein (CHO-A1Tpz).

Test [2] has as its target T2, human adenosine A1 receptor (A1-AR) (Homo sapiens, UniProt P30542).
T2 construct: expressed in transfected cells; host or cells: CHO (CHO-K1) cells: CHO-A1 and CHO-A1fos; cell membranes in A1, whole or live cells in the other assays
T2 sequence (P30542 1-326): T1 sequence (P30542 1-326)
As to the kind of experiment: Fluorescence correlation spectroscopy (FCS) of ligand binding on CHO-A1 cells. An excerpt: FCS is a non-invasive technique which measures fluctuations in fluorescence intensity in a confocal volume of <10^−15 l. Statistical analysis of these fluctuations gives information about the speed of diffusion (i.e. mass) and concentration of the fluorescent molecules present. Thus free ligand (fast diffusing) and bound ligand (slow diffusing) can be quantified simultaneously on a single cell. We have used FCS to measure binding of the fluorescent ligand, xanthine amine cogener-BODIPY®630/650 (XAC-BY630) to the human adenosine A1 receptor (A1-AR).
CHO cells expressing either the human A1-AR or an A1-AR-Topaz fusion were cultured on glass-bottomed 8-well plates and prepared for live cell measurement FCS measurements were made using a Zeiss Confocor 2, fitted with an Axiocam CCD camera for x-y positioning. Cells were incubated with ligands at 22° C. for the times indicated and the confocal volume was positioned on the upper membrane. Data were collected for 2×30 s, following a 15 s pre-bleach and analysed using a multi-parameter equation using Zeiss AIM software.

The target of test [3] is human adenosine A1-receptor (Homo sapiens, UniProt P30542). The test is described as follows: biochemical.

Turning to `CCCn1c(=O)c2[nH]c(C3CCCC3)nc2n(CCC)c1=O` [DPCPX, 8-cyclopentyl-1,3-dipropyl xanthine, reference compound], in test [1] (30 min pre-incubation with DPCPX 10^−8-10^−6M, XAC-BY630 30 min, 50 nM), the “Inhibition of membrane binding of XAC-BY630 (confocal imaging)” value was “concentration-dependent inhibition”.
Consider `CCCn1c(=O)c2[nH]c(-c3ccc(OCC(=O)NCCNC(=O)CCCCCNC(=O)COc4ccc(/C=C/C5=[N+]6C(=Cc7ccc(-c8cccs8)n7[B-]6(F)F)C=C5)cc4)cc3)nc2n(CCC)c1=O` [XAC-BY630, xanthine amine cogener-BODIPY®630/650], for which the “Amount of τD1 component after DPCPX preincubation” value in test [2] (15 nM XAC-BY630 for 30 min, DPCPX 1 μM, 30 min preincubation, n=4) was found to be 13.6±5.4 receptors/μm^2. For the same compound, the “Amount of τD1 component” value in test [2] (15 nM XAC-BY630 for 30 min, no DPCPX, n=8) is 51.8±14.9 receptors/μm^2. For the same compound, in test [2] (in buffer, single component, n=10), the “Diffusion time τD of free ligand in buffer (FCS)” value was 60±2 μs. For the same compound, the “Diffusion time τD2, very slow diffusing component (non-specific binding)” value in test [2] (upper membrane of CHO-A1 cells, XAC-BY630 1-40 nM, 10-60 min, 61/71 cells) stood at 345 ± 41 ms. In addition, the “Diffusion time τD1, first slow-diffusing component (receptor-bound ligand)” value in test [2] (upper membrane of CHO-A1 cells, XAC-BY630 1-40 nM, 10-60 min, 69/71 cells) was determined as 17.4 ± 1.1 ms. Also, in test [1] (CHO-A1 cells, 22° C.), the “Binding to membrane-localised A1-ARs (confocal imaging)” value was “time- and concentration-dependent manner”. The “Time after which binding was detected (confocal imaging)” value in test [1] (XAC-BY630 25-250 nM, CHO-A1 cells) amounted to 5 min. In addition, the Kb in test [3] is 126 nM.
